# Test system: GFP-FtsZ expressing E. coli
# Experiment: GFP-FtsZ localization and morphology
# Assay type: cell-based
# Conditions: 15 μM
# Protocol: The FtsZ protein assembles into a membrane-associated ring structure at the division septum. It recruits other proteins for the progression and completion of cell division.[34] The effect of VanQAmC10 on the localization of FtsZ and morphology in E. coli producing green fluorescent protein (GFP)-tagged FtsZ was studied through microscopy (Fig. 5B). The cells were treated with IPTG to overexpress gfp-ftsZ and then either treated with compounds or left untreated. Upon treatment with 15 μM of VanQAmC10, the cells appear to be filamentous with variable lengths of up to 4 μm, while cells in the control group were ∼2.5 μm long. Incubation with VanQAmC10 for a longer time (130 minutes) results in bulkier filamentous cells, with severely distorted shapes (Fig. S4 ^†). […] IPTG-treated cells formed minicells of ∼1.5 μm length, which is characteristic of cells overproducing FtsZ.[35] Known inhibitors of FtsZ alter the regular midcell distribution of Z-rings.[36] […]
# resuspended in prewarmed BMM media. […] The fluorescence in the GFP and Texas red channels was then observed under the microscope. […]
# About 6 μl of sample was immobilized on 1% agarose pad . DIC and fluorescence images were obtained at different time intervals using Nikon Eclipse Ti Microscope equipped with Nikon DS-U3 camera through Plan Apo 100×/1.40 oil objective. […]
smiles,measurement,setting,value
CCCCCCCCCCNC(=O)C[N+](C)(C)CCCNC(=O)C1NC(=O)C2NC(=O)C(NC(=O)C3NC(=O)C(CC(N)=O)NC(=O)C(NC(=O)C(CC(C)C)NC)C(O)c4ccc(c(Cl)c4)Oc4cc3cc(c4OC3OC(CO)C(O)C(O)C3OC3CC(C)(N)C(O)C(C)O3)Oc3ccc(cc3Cl)C2O)c2ccc(O)c(c2)-c2c(O)cc(O)cc21 (centres unmarked) [VanQAmC10 (8)],localization and distribution of Z-rings,,remain unaltered
same,length of filamentous cells,"40 min, control cells ∼2.5 μm",up to 4 μm

# Reference: article PMC9977398, “Next-generation membrane-active glycopeptide antibiotics that also inhibit bacterial cell division” (Chemical Science, 2023)
